Assay type in all cases: functional
The subject of one assay is Candida albicans. Description: Antifungal activity against Candida albicans MTCC 227 after 48 hr by broth microdilution method. On the technique in general: Broth dilution looks for growth in wells or tubes with falling amounts of substance.
In a further assay the test system is Aspergillus fumigatus. Description: Antifungal activity against Aspergillus fumigatus MTCC 3008 after 48 hr by broth microdilution method.
The test system of a further assay is Escherichia coli. The assay can be described thus: Antibacterial activity against Escherichia coli MTCC 443 after 24 hr by broth microdilution method. The note with it: MTCC 443, 24 h.
Another assay concerns Bacillus subtilis. The assay can be described thus: Antibacterial activity against Bacillus subtilis MTCC 441 after 24 hr by broth microdilution method.
The test system of the next assay is Streptococcus pneumoniae. Description: Antibacterial activity against Streptococcus pneumoniae MTCC 1936 after 24 hr by broth microdilution method. Conditions: MTCC 1936, 24 h.

Broadly, the MIC is the lowest concentration found to suppress growth. The low end stands for a more susceptible organism, the high end for a less susceptible organism.

Values after ≈ are worked out from the molar mass of the structure shown.

Take NYSTATIN: the MIC in the assay with Candida albicans and in the assay with Aspergillus fumigatus was 100 µg/mL throughout.
`O=C1CCCC2=C1C(c1cn(-c3ccccc3)nc1-c1ccccc1)CC(=O)N2c1ccc(F)cc1` (centres undefined): the MIC in the assay on Candida albicans (MTCC 227, 48 h) is greater than 1000 µg/mL; in the assay with Aspergillus fumigatus (MTCC 3008, 48 h), greater than 1000 µg/mL; against Escherichia coli, 500 µg/mL (≈ 1050 µM); with Bacillus subtilis (MTCC 441, 24 h), 0.5 µg/mL (≈ 1.05 µM); against Streptococcus pneumoniae, 500 µg/mL (≈ 1050 µM).
Turning to GENTAMICIN, inhibition of growth in the assay with Bacillus subtilis (MIC) required 0.001 µg/mL.
Regarding `O=C(N[C@H](CO)[C@H](O)c1ccc([N+](=O)[O-])cc1)C(Cl)Cl` [CHLORAMPHENICOL], the MIC was 50 µg/mL (≈ 155 µM) in the assay with Escherichia coli; 0.05 µg/mL (≈ 0.155 µM) against Bacillus subtilis (MTCC 441, 24 h); 50 µg/mL (≈ 155 µM) in the assay with Streptococcus pneumoniae.
Consider `CC1(C)CC(=O)C2=C(C1)N(c1ccc(F)cc1)C(=O)CC2c1cn(-c2ccccc2)nc1-c1ccc(F)cc1` (centres undefined), for which the MIC against Candida albicans (MTCC 227, 48 h) is 500 µg/mL (≈ 955 µM); against Aspergillus fumigatus (MTCC 3008, 48 h), 1000 µg/mL (≈ 1910 µM); against Escherichia coli it was 150 µg/mL (≈ 286 µM); against Bacillus subtilis (MTCC 441, 24 h), 0.5 µg/mL (≈ 0.955 µM); against Streptococcus pneumoniae it was 500 µg/mL (≈ 955 µM).
Consider `O=C1CCCC2=C1C(c1cn(-c3ccccc3)nc1-c1cccs1)CC(=O)N2c1ccc(F)cc1` (centres undefined), for which the MIC against Candida albicans (MTCC 227, 48 h) is 500 µg/mL (≈ 1030 µM); against Aspergillus fumigatus (MTCC 3008, 48 h), 1000 µg/mL (≈ 2070 µM); in the assay with Escherichia coli, 100 µg/mL (≈ 207 µM); against Bacillus subtilis (MTCC 441, 24 h) it was 0.25 µg/mL (≈ 0.517 µM); in the assay with Streptococcus pneumoniae it was 200 µg/mL (≈ 414 µM).
In the same order, the values of `CC1(C)CC(=O)C2=C(C1)N(c1ccc(F)cc1)C(=O)CC2c1cn(-c2ccccc2)nc1-c1cccs1` (centres undefined) are 500 µg/mL (≈ 977 µM), 1000 µg/mL (≈ 1950 µM), 200 µg/mL (≈ 391 µM), 0.25 µg/mL (≈ 0.489 µM) and 500 µg/mL (≈ 977 µM).
As for `COc1ccc(-c2nn(-c3ccccc3)cc2C2CC(=O)N(c3ccc(F)cc3)C3=C2C(=O)CCC3)cc1` (centres undefined), the MIC against Candida albicans (MTCC 227, 48 h) is 1000 µg/mL (≈ 1970 µM); against Aspergillus fumigatus (MTCC 3008, 48 h), 500 µg/mL (≈ 985 µM); against Escherichia coli it was 100 µg/mL (≈ 197 µM); in the assay with Bacillus subtilis (MTCC 441, 24 h), 0.5 µg/mL (≈ 0.985 µM); in the assay on Streptococcus pneumoniae, 250 µg/mL (≈ 493 µM).
In the same order, the values of `O=C1CCCC2=C1C(c1cn(-c3ccccc3)nc1-c1ccc([N+](=O)[O-])cc1)CC(=O)N2c1ccc(F)cc1` (centres undefined) are 500 µg/mL (≈ 957 µM), 1000 µg/mL (≈ 1910 µM), 62.5 µg/mL (≈ 120 µM), 0.2 µg/mL (≈ 0.383 µM) and 100 µg/mL (≈ 191 µM).
With `CC1(C)S[C@@H]2[C@H](NC(=O)[C@H](N)c3ccccc3)C(=O)N2[C@H]1C(=O)O` [AMPICILLIN], the MIC in the assay with Escherichia coli was 100 µg/mL (≈ 286 µM); against Bacillus subtilis (MTCC 441, 24 h), 0.25 µg/mL (≈ 0.715 µM); against Streptococcus pneumoniae, 100 µg/mL (≈ 286 µM).
Regarding `CC1(C)CC(=O)C2=C(C1)N(c1ccc(F)cc1)C(=O)CC2c1cn(-c2ccccc2)nc1-c1ccc(Br)cc1` (centres undefined), the MIC against Candida albicans (MTCC 227, 48 h) turned out to be 100 µg/mL (≈ 171 µM); in the assay with Aspergillus fumigatus (MTCC 3008, 48 h) it was 100 µg/mL (≈ 171 µM); in the assay with Escherichia coli, 500 µg/mL (≈ 855 µM); against Bacillus subtilis (MTCC 441, 24 h) it was 0.5 µg/mL (≈ 0.855 µM); in the assay on Streptococcus pneumoniae, 250 µg/mL (≈ 428 µM).
In the case of `COC1=CC(=O)C[C@@H](C)[C@]12Oc1c(Cl)c(OC)cc(OC)c1C2=O` [GRISEOFULVIN], the MIC against Candida albicans (MTCC 227, 48 h) amounted to 500 µg/mL (≈ 1420 µM); against Aspergillus fumigatus (MTCC 3008, 48 h), 100 µg/mL (≈ 283 µM).
As to `CC1(C)CC(=O)C2=C(C1)N(c1ccc(F)cc1)C(=O)CC2c1cn(-c2ccccc2)nc1-c1ccccc1` (centres undefined), the MIC against Candida albicans (MTCC 227, 48 h) was determined as 500 µg/mL (≈ 989 µM); in the assay with Aspergillus fumigatus (MTCC 3008, 48 h) it was 500 µg/mL (≈ 989 µM); in the assay with Escherichia coli, 500 µg/mL (≈ 989 µM); in the assay on Bacillus subtilis (MTCC 441, 24 h) it was 0.2 µg/mL (≈ 0.396 µM); with Streptococcus pneumoniae, 150 µg/mL (≈ 297 µM).
With `COc1ccc(-c2nn(-c3ccccc3)cc2C2CC(=O)N(c3ccc(F)cc3)C3=C2C(=O)CC(C)(C)C3)cc1` (centres undefined), the MIC in the assay on Candida albicans (MTCC 227, 48 h) is 1000 µg/mL (≈ 1870 µM); against Aspergillus fumigatus (MTCC 3008, 48 h), 1000 µg/mL (≈ 1870 µM); against Escherichia coli, 250 µg/mL (≈ 467 µM); against Bacillus subtilis (MTCC 441, 24 h), 0.2 µg/mL (≈ 0.373 µM); with Streptococcus pneumoniae it was 100 µg/mL (≈ 187 µM).
`O=C1CCCC2=C1C(c1cn(-c3ccccc3)nc1-c1ccc(Cl)cc1)CC(=O)N2c1ccc(F)cc1` (centres undefined): the MIC against Candida albicans (MTCC 227, 48 h) is 500 µg/mL (≈ 977 µM); against Aspergillus fumigatus (MTCC 3008, 48 h), greater than 1000 µg/mL; against Escherichia coli, 100 µg/mL (≈ 195 µM); against Bacillus subtilis (MTCC 441, 24 h), 0.25 µg/mL (≈ 0.488 µM); in the assay with Streptococcus pneumoniae it was 250 µg/mL (≈ 488 µM).
For the compound `CC1(C)CC(=O)C2=C(C1)N(c1ccc(F)cc1)C(=O)CC2c1cn(-c2ccccc2)nc1-c1ccc([N+](=O)[O-])cc1` (centres undefined), the MIC was 1000 µg/mL (≈ 1820 µM) in the assay with Candida albicans (MTCC 227, 48 h); 1000 µg/mL (≈ 1820 µM) with Aspergillus fumigatus (MTCC 3008, 48 h); 100 µg/mL (≈ 182 µM) with Escherichia coli; 0.25 µg/mL (≈ 0.454 µM) in the assay on Bacillus subtilis (MTCC 441, 24 h); 250 µg/mL (≈ 454 µM) against Streptococcus pneumoniae.
In the case of `Cc1ccc(-c2nn(-c3ccccc3)cc2C2CC(=O)N(c3ccc(F)cc3)C3=C2C(=O)CCC3)cc1` (centres undefined), the MIC with Candida albicans (MTCC 227, 48 h) is 1000 µg/mL (≈ 2030 µM); against Aspergillus fumigatus (MTCC 3008, 48 h) it was 500 µg/mL (≈ 1020 µM); in the assay with Escherichia coli, 250 µg/mL (≈ 509 µM); in the assay with Bacillus subtilis (MTCC 441, 24 h), 0.25 µg/mL (≈ 0.509 µM); in the assay with Streptococcus pneumoniae, 100 µg/mL (≈ 203 µM).
The corresponding values for `Cc1ccc(-c2nn(-c3ccccc3)cc2C2CC(=O)N(c3ccc(F)cc3)C3=C2C(=O)CC(C)(C)C3)cc1` (centres undefined) are 500 µg/mL (≈ 962 µM), 500 µg/mL (≈ 962 µM), 500 µg/mL (≈ 962 µM), 0.5 µg/mL (≈ 0.962 µM) and 100 µg/mL (≈ 192 µM).
In the same order, the values of `CC1(C)CC(=O)C2=C(C1)N(c1ccc(F)cc1)C(=O)CC2c1cn(-c2ccccc2)nc1-c1ccc(Cl)cc1` (centres undefined) are 1000 µg/mL (≈ 1850 µM), 500 µg/mL (≈ 926 µM), 50 µg/mL (≈ 92.6 µM), 0.15 µg/mL (≈ 0.278 µM) and 250 µg/mL (≈ 463 µM).
The corresponding values for `O=C1CCCC2=C1C(c1cn(-c3ccccc3)nc1-c1ccc(F)cc1)CC(=O)N2c1ccc(F)cc1` (centres undefined) are 500 µg/mL (≈ 1010 µM), 1000 µg/mL (≈ 2020 µM), 250 µg/mL (≈ 505 µM), 0.1 µg/mL (≈ 0.202 µM) and 200 µg/mL (≈ 404 µM).
Regarding `O=C1CCCC2=C1C(c1cn(-c3ccccc3)nc1-c1ccc(Br)cc1)CC(=O)N2c1ccc(F)cc1` (centres undefined), the MIC against Candida albicans (MTCC 227, 48 h) is 500 µg/mL (≈ 899 µM); against Aspergillus fumigatus (MTCC 3008, 48 h) it was greater than 1000 µg/mL; in the assay on Escherichia coli, 62.5 µg/mL (≈ 112 µM); against Bacillus subtilis (MTCC 441, 24 h), 0.5 µg/mL (≈ 0.899 µM); in the assay with Streptococcus pneumoniae, 250 µg/mL (≈ 449 µM).
For the compound `O=C(O)c1cn(C2CC2)c2cc(N3CCNCC3)c(F)cc2c1=O` [CIPROFLOXACIN], the MIC against Escherichia coli was determined as 25 µg/mL (≈ 75.4 µM); in the assay with Bacillus subtilis (MTCC 441, 24 h) it was 0.05 µg/mL (≈ 0.151 µM); with Streptococcus pneumoniae, 50 µg/mL (≈ 151 µM).

(Values after ChEMBL document CHEMBL3045375, “Synthesis, characterization and biological activity of some new carbostyril bearing 1H-pyrazole moiety” (2012).)
